Results published in publication PMC8581430, “Peptide ligands targeting FGF receptors promote recovery from dorsal root crush injury via AKT/mTOR signaling” (Theranostics, 2021).

Experiments:
DRG explants = assay: Axon growth of ex vivo cultured adult DRG explants; format: cell-based, Sprague-Dawley rat; conditions: 4 days
Description: Figure 3 Effect of the CH02 peptide on axon growth and neuron survival. (A) Representative images of the CH02 peptide effect on axon growth in adult primary DRG neurons. DRG neurons were obtained from adult Sprague-Dawley rats. After 12-h of culture, neurons were stimulated with CH02 or bFGF for 48 h. Axonal outgrowth was assessed by immunocytochemistry using an antibody against β-tubulin, an axonal marker. Images were acquired from random neurons by fluorescence microscopy. Scale bars = 50 μm. (B) Quantification of the longest axon length of each neuron randomly selected in three independent experiments from (A), using Image-Pro Plus 6.0 software (n = 48 for each condition; *p < 0.05, ****p < 0.0001 by one-way ANOVA with Dunnett's test; ns, not significant; mean ± SD). (C) Representative images of the CH02 effect on axon growth in ex vivo cultured adult DRG explants. The axon is shown in fluorescence (β3-tubulin) images. Scale bars = 100 μm. (D) Quantification of axon growth of DRG explants from (C) using the Neurite-J software (n=4 for each condition; *control vs. CH02; #control vs. bFGF; *p < 0.05, **p < 0.01, ***p < 0.001, #p < 0.05, ##p < 0.01 by two-way ANOVA with Dunnett's test; ns, not significant; mean ± SEM). (E) Cell cytotoxicity assay of primary DRG neurons induced by H2O2. LDH released from damaged cell membranes was detected by an LDH assay kit. The results are expressed as the mean ± SEM (**p < 0.01 by one-way ANOVA with Dunnett's test; ns, not significant, compared with the control group). […] Apoptotic neurons were detected by a TUNEL apoptosis assay kit. […] (G) Quantification of TUNEL-positive neurons from (F) (n = 3 for each condition; **p < 0.01 by one-way ANOVA with Dunnett's test; ns, not significant, compared with the control group). […]
DRG explants were harvested from adult Sprague-Dawley rats (220-250 g) and placed in a 3.5 cm dish containing 2 mL of ice-cold neurobasal medium supplemented with 1 × B27, 4 mM Glutamax and 3× penicillin/streptomycin (Pen/Strep). […] After 7 days of culture, axon growth was measured. […]

primary DRG neurons = assay: Axon growth of primary adult DRG neurons; format: cell-based, Sprague-Dawley rat; conditions: 48 h
Description: Figure 3 Effect of the CH02 peptide on axon growth and neuron survival. (A) Representative images of the CH02 peptide effect on axon growth in adult primary DRG neurons. DRG neurons were obtained from adult Sprague-Dawley rats. After 12-h of culture, neurons were stimulated with CH02 or bFGF for 48 h. Axonal outgrowth was assessed by immunocytochemistry using an antibody against β-tubulin, an axonal marker. Images were acquired from random neurons by fluorescence microscopy. Scale bars = 50 μm. (B) Quantification of the longest axon length of each neuron randomly selected in three independent experiments from (A), using Image-Pro Plus 6.0 software (n = 48 for each condition; *p < 0.05, ****p < 0.0001 by one-way ANOVA with Dunnett's test; ns, not significant; mean ± SD). (C) Representative images of the CH02 effect on axon growth in ex vivo cultured adult DRG explants. The axon is shown in fluorescence (β3-tubulin) images. Scale bars = 100 μm. (D) Quantification of axon growth of DRG explants from (C) using the Neurite-J software (n=4 for each condition; *control vs. CH02; #control vs. bFGF; *p < 0.05, **p < 0.01, ***p < 0.001, #p < 0.05, ##p < 0.01 by two-way ANOVA with Dunnett's test; ns, not significant; mean ± SEM). (E) Cell cytotoxicity assay of primary DRG neurons induced by H2O2. LDH released from damaged cell membranes was detected by an LDH assay kit. The results are expressed as the mean ± SEM (**p < 0.01 by one-way ANOVA with Dunnett's test; ns, not significant, compared with the control group). (F) Representative TUNEL staining of apoptotic neurons induced by H2O2 in the control, CH02, and FGF2 groups. Scale bars = 50 μm. Apoptotic neurons were detected by a TUNEL apoptosis assay kit. TUNEL (green); NeuN, neuronal marker (red); DAPI (blue). (G) Quantification of TUNEL-positive neurons from (F) (n = 3 for each condition; **p < 0.01 by one-way ANOVA with Dunnett's test; ns, not significant, compared with the control group). DRG neurons were obtained from adult Sprague-Dawley rats. […]

CCN1CCN(c2ccc(Nc3cc(N(C)C(=O)Nc4c(Cl)c(OC)cc(OC)c4Cl)ncn3)cc2)CC1 [BGJ398]
effect of inhibitor on CH02-enhanced neurite outgrowth, DRG explants (DRG explants; CH02 20 μM + BGJ398 2 μM, n = 5): inhibited the enhancement of neuron outgrowth associated with CH02 treatment | effect of inhibitor on CH02-enhanced neurite outgrowth, primary neurons (primary DRG neurons; CH02 20 μM + BGJ398 2 μM, n = 100): inhibited the enhancement of neuron outgrowth associated with CH02 treatment

N#CC(=C(/N)Sc1ccccc1N)/C(C#N)=C(/N)Sc1ccccc1N [U0126]
effect of AKT/ERK inhibitor on axon growth-promoting effect of CH02, DRG explants (DRG explants; CH02 20 μM + inhibitor 2 μM, n = 4): had little effect | effect of AKT/ERK inhibitor on axon growth-promoting effect of CH02, DRG neurons (primary DRG neurons; CH02 20 μM + inhibitor 2 μM, n = 40): had little effect
